PubChem BioAssay (NCI)
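Grown in 96-well plates, cells were treated for 48 hours with each compound at five concentrations. Insufficient inhibition: endpoint recorded as highest concentration tested. GI50 is the concentration that inhibits growth by half. Definition used: TGI = concentration required for complete inhibition of growth.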 Where a SMILES comes first, the peptide text is derived from it. [ ]: non-standard residue; d: D form. The star is where a group is joined. Benzoyl(4-OMe) = COc1ccc(C(=O)*)cc1; 2Thi = N[CH](Cc1cccs1)C(=O)O

Key:
Test in all cases: NCI tumour cell line growth inhibition, 48 h
ACHN renal = system: ACHN renal
BT-549 breast = system: BT-549 breast
CAKI-1 renal = system: CAKI-1 renal
EKVX NSCLC = system: EKVX NSCLC
HCT-15 colon = system: HCT-15 colon
HOP-62 NSCLC = system: HOP-62 NSCLC
HOP-92 NSCLC = system: HOP-92 NSCLC
LOX IMVI melanoma = system: LOX IMVI melanoma
MALME-3M melanoma = system: MALME-3M melanoma
MDA-MB-231 breast = system: MDA-MB-231 breast
NCI-H23 lung = system: NCI-H23 lung
NCI/ADR-RES ovarian = system: NCI/ADR-RES ovarian
OVCAR-4 ovarian = system: OVCAR-4 ovarian
RXF 393 renal = system: RXF 393 renal
SF-295 CNS = system: SF-295 CNS
SF-539 CNS = system: SF-539 CNS
SK-OV-3 ovarian = system: SK-OV-3 ovarian
SNB-19 CNS = system: SNB-19 CNS
SNB-75 CNS = system: SNB-75 CNS
TK-10 renal = system: TK-10 renal
U251 CNS = system: U251 CNS
786-0 renal = system: 786-0 renal
A498 renal = system: A498 renal
A549 NSCLC = system: A549 NSCLC
CCRF-CEM leukemia = system: CCRF-CEM leukemia
COLO 205 colon = system: COLO 205 colon
DU-145 prostate = system: DU-145 prostate
HCC-2998 colon = system: HCC-2998 colon
HCT-116 colon = system: HCT-116 colon
HS 578T breast = system: HS 578T breast
HT29 colon = system: HT29 colon
IGROV1 ovarian = system: IGROV1 ovarian
K-562 leukemia = system: K-562 leukemia
KM12 colon = system: KM12 colon
M14 melanoma = system: M14 melanoma
MCF7 breast = system: MCF7 breast
MDA-MB-435 = system: MDA-MB-435
MOLT-4 leukemia = system: MOLT-4 leukemia
NCI-H226 lung = system: NCI-H226 lung
NCI-H460 lung = system: NCI-H460 lung
NCI-H522 lung = system: NCI-H522 lung
OVCAR-3 ovarian = system: OVCAR-3 ovarian
OVCAR-5 ovarian = system: OVCAR-5 ovarian
OVCAR-8 ovarian = system: OVCAR-8 ovarian
PC-3 prostate = system: PC-3 prostate
RPMI-8226 leukemia = system: RPMI-8226 leukemia
SF-268 CNS = system: SF-268 CNS
SK-MEL-28 melanoma = system: SK-MEL-28 melanoma
SK-MEL-5 melanoma = system: SK-MEL-5 melanoma
SN12C renal = system: SN12C renal
SR leukemia = system: SR leukemia
SW-620 colon = system: SW-620 colon
UACC-257 melanoma = system: UACC-257 melanoma
UACC-62 melanoma = system: UACC-62 melanoma
UO-31 renal = system: UO-31 renal
HL-60(TB) leukemia = system: HL-60(TB) leukemia
SK-MEL-2 melanoma = system: SK-MEL-2 melanoma
T-47D breast = system: T-47D breast

COc1cc(-c2nc3ccc(C)cc3[nH]2)ccc1OCC(=O)N=Nc1c(O)[nH]c2ccc(Cl)cc12
GI50 (ACHN renal): 3.64 µM | TGI (ACHN renal): > 100 µM | GI50 (BT-549 breast): 2.97 µM | TGI (BT-549 breast): > 100 µM | GI50 (CAKI-1 renal): 1.43 µM | TGI (CAKI-1 renal): 2.93 µM | GI50 (EKVX NSCLC): 3.85 µM | TGI (EKVX NSCLC): > 100 µM | GI50 (HCT-15 colon): 2.13 µM | TGI (HCT-15 colon): > 100 µM | GI50 (HOP-62 NSCLC): 2.31 µM | TGI (HOP-62 NSCLC): 7.02 µM | GI50 (HOP-92 NSCLC): 1.91 µM | TGI (HOP-92 NSCLC): 7.05 µM | GI50 (LOX IMVI melanoma): 0.289 µM | TGI (LOX IMVI melanoma): 1.01 µM | GI50 (MALME-3M melanoma): 1.64 µM | TGI (MALME-3M melanoma): 3.14 µM | GI50 (MDA-MB-231 breast): 0.438 µM | TGI (MDA-MB-231 breast): 1.67 µM | GI50 (NCI-H23 lung): 2.06 µM | TGI (NCI-H23 lung): 6.18 µM | GI50 (NCI/ADR-RES ovarian): > 100 µM | TGI (NCI/ADR-RES ovarian): > 100 µM | GI50 (OVCAR-4 ovarian): 2.24 µM | TGI (OVCAR-4 ovarian): 4.83 µM | GI50 (RXF 393 renal): 1.59 µM | TGI (RXF 393 renal): 3.04 µM | GI50 (SF-295 CNS): 1.8 µM | TGI (SF-295 CNS): 3.36 µM | GI50 (SF-539 CNS): 1.63 µM | TGI (SF-539 CNS): 3.05 µM | GI50 (SK-OV-3 ovarian): 3.44 µM | TGI (SK-OV-3 ovarian): > 100 µM | GI50 (SNB-19 CNS): 1.91 µM | TGI (SNB-19 CNS): 5.57 µM | GI50 (SNB-75 CNS): 1.43 µM | TGI (SNB-75 CNS): 3.72 µM | GI50 (TK-10 renal): 3.48 µM | TGI (TK-10 renal): 9.5 µM | GI50 (U251 CNS): 0.418 µM | TGI (U251 CNS): 1.66 µM

O=C(CNc1cccc(Cl)c1)Nn1c(-c2ccccc2)nc2ccccc2c1=O
TGI (786-0 renal): 7.24 µM | TGI (A498 renal): 43.5 µM | TGI (A549 NSCLC): 46.4 µM | TGI (ACHN renal): 26.5 µM | TGI (BT-549 breast): 3.95 µM | TGI (CCRF-CEM leukemia): 8.73 µM | TGI (COLO 205 colon): 20.2 µM | TGI (DU-145 prostate): 44.9 µM | TGI (EKVX NSCLC): 34.4 µM | TGI (HCC-2998 colon): 23.9 µM | TGI (HCT-116 colon): 4.07 µM | TGI (HOP-62 NSCLC): 30.8 µM | TGI (HOP-92 NSCLC): 7.45 µM | TGI (HS 578T breast): 65 µM | TGI (HT29 colon): 24.9 µM | TGI (IGROV1 ovarian): 17.9 µM | TGI (K-562 leukemia): 18.1 µM | TGI (KM12 colon): 24.9 µM | TGI (LOX IMVI melanoma): 2.74 µM | TGI (M14 melanoma): 6.19 µM | TGI (MCF7 breast): 4.32 µM | TGI (MDA-MB-231 breast): 10.8 µM | TGI (MDA-MB-435): 15.2 µM | TGI (MOLT-4 leukemia): 8.62 µM | TGI (NCI-H226 lung): 35.3 µM | TGI (NCI-H23 lung): 8.11 µM | TGI (NCI-H460 lung): 29.2 µM | TGI (NCI-H522 lung): 2.98 µM | TGI (OVCAR-3 ovarian): 21.1 µM | TGI (OVCAR-4 ovarian): 19.3 µM | TGI (OVCAR-5 ovarian): 32.8 µM | TGI (OVCAR-8 ovarian): > 100 µM | TGI (PC-3 prostate): 22.9 µM | TGI (RPMI-8226 leukemia): > 100 µM | TGI (SF-268 CNS): 22.9 µM | TGI (SF-295 CNS): 28.5 µM | TGI (SF-539 CNS): 13.6 µM | TGI (SK-MEL-28 melanoma): 29.9 µM | TGI (SK-MEL-5 melanoma): 2.88 µM | TGI (SK-OV-3 ovarian): 23.7 µM | TGI (SN12C renal): 13.6 µM | TGI (SNB-19 CNS): 31.6 µM | TGI (SNB-75 CNS): 13.8 µM | TGI (SR leukemia): > 100 µM | TGI (SW-620 colon): 7.37 µM | TGI (U251 CNS): 3.41 µM | TGI (UACC-257 melanoma): 42.2 µM | TGI (UACC-62 melanoma): 7.83 µM | TGI (UO-31 renal): 31 µM

CCC(C)C(NC(=O)C(Cc1cccs1)NC(=O)C(CC(C)C)NC(=O)C(CC(C)C)NC(=O)C(CCCCN)NC(=O)C(CCCN=C(N)N)NC(=O)c1ccc(OC)cc1)C(=O)NC(CC(C)C)C(N)=O (configuration not stated) ({Benzoyl(4-OMe)}-RKLL[2Thi]IL-NH2; configuration not given here)
TGI (BT-549 breast): > 100 µM | TGI (NCI-H226 lung): > 100 µM | TGI (NCI-H23 lung): > 100 µM | TGI (UACC-257 melanoma): > 100 µM

CC(=O)c1sc2c(c1OC(=O)c1ccc(Cl)cc1)c(=O)n(-c1ccccc1)c(=S)n2-c1ccccc1
TGI (786-0 renal): 15.9 µM | TGI (A498 renal): 3.64 µM | TGI (A549 NSCLC): > 76.1 µM | TGI (ACHN renal): 15.7 µM | TGI (CAKI-1 renal): > 47 µM | TGI (CCRF-CEM leukemia): 7.41 µM | TGI (COLO 205 colon): 13.8 µM | TGI (DU-145 prostate): > 100 µM | TGI (EKVX NSCLC): 77.8 µM | TGI (HCC-2998 colon): > 58.3 µM | TGI (HCT-116 colon): 25.2 µM | TGI (HCT-15 colon): 25.8 µM | TGI (HL-60(TB) leukemia): 30.6 µM | TGI (HOP-62 NSCLC): 24.1 µM | TGI (HOP-92 NSCLC): 15.8 µM | TGI (HS 578T breast): 9.72 µM | TGI (HT29 colon): 8.95 µM | TGI (IGROV1 ovarian): 37.8 µM | TGI (K-562 leukemia): 38.4 µM | TGI (KM12 colon): 44.7 µM | TGI (LOX IMVI melanoma): 6.92 µM | TGI (M14 melanoma): 5.48 µM | TGI (MALME-3M melanoma): 4.51 µM | TGI (MCF7 breast): 71.9 µM | TGI (MDA-MB-231 breast): 19.2 µM | TGI (MDA-MB-435): > 36.8 µM | TGI (MOLT-4 leukemia): 6.68 µM | TGI (NCI-H226 lung): 5.56 µM | TGI (NCI-H23 lung): > 68.6 µM | TGI (NCI-H460 lung): 22.1 µM | TGI (NCI-H522 lung): 18.9 µM | TGI (NCI/ADR-RES ovarian): 23 µM | TGI (OVCAR-3 ovarian): 41.6 µM | TGI (OVCAR-4 ovarian): 65.5 µM | TGI (OVCAR-5 ovarian): 13.2 µM | TGI (OVCAR-8 ovarian): 15.1 µM | TGI (PC-3 prostate): > 100 µM | TGI (RPMI-8226 leukemia): 8.56 µM | TGI (RXF 393 renal): 5.91 µM | TGI (SF-268 CNS): > 100 µM | TGI (SF-295 CNS): 5.88 µM | TGI (SF-539 CNS): 5.06 µM | TGI (SK-MEL-2 melanoma): 3.7 µM | TGI (SK-MEL-28 melanoma): > 31.8 µM | TGI (SK-MEL-5 melanoma): 7.61 µM | TGI (SK-OV-3 ovarian): 7.03 µM | TGI (SN12C renal): 6.43 µM | TGI (SNB-19 CNS): > 42.9 µM | TGI (SNB-75 CNS): 23.3 µM | TGI (SR leukemia): 23.1 µM | TGI (SW-620 colon): 70.7 µM | TGI (T-47D breast): > 69.4 µM | TGI (TK-10 renal): 87.4 µM | TGI (U251 CNS): 15 µM | TGI (UACC-257 melanoma): 38.4 µM | TGI (UACC-62 melanoma): 42.6 µM | TGI (UO-31 renal): 9.24 µM
